The source of these data is patent US10004701B2, “Methods and compositions for treating infection” (UNIVERSITY OF ROCHESTER, priority 2012, dated 2018).

Counter-ions that a name gives are not always drawn. Like-named read-outs stand apart in the source and are kept apart here.

Common to all, as to experiment: AK assay 384-well format, Prestwick library screening
Test [1] deals with E. faecium. It is filed as cell-based, Enterococcus faecium. The conditions noted are these: Enterococcus faecium, 3 h, 50 μM final drug concentration.
In test [2] the test system is A. baumannii strain 98-37-09. It is filed as cell-based, Acinetobacter baumannii. The conditions noted are these: Acinetobacter baumannii, 983709, 3 h, 50 μM final drug concentration.
For test [3], the system named is E. cloacae. It counts as cell-based, Enterobacter cloacae. The following applies: Enterobacter cloacae, 3 h, 50 μM final drug concentration.
Test [4] relates to S. aureus strain USA300-0114. It is filed as cell-based, Staphylococcus aureus. The conditions noted are these: Staphylococcus aureus, USA300, 3 h, 50 μM final drug concentration.
Test [5] relates to K. pneumoniae. It counts as cell-based, Klebsiella pneumoniae. The conditions noted are these: Klebsiella pneumoniae, 3 h, 50 μM final drug concentration.
Test [6] has as its system P. aeruginosa. It counts as cell-based, Pseudomonas aeruginosa. The following applies: Pseudomonas aeruginosa, 3 h, 50 μM final drug concentration.
Test [7] has as its system E. coli. It is filed as cell-based, Escherichia coli. The conditions noted are these: Escherichia coli, 3 h, 50 μM final drug concentration.
The mark [8] stands for this setting: planktonic E. faecium, positive cutoff 3-fold increase, read-out: AK-based Prestwick library screening result, E. faecium (fold increase in extracellular AK activity).
The mark [9] stands for this setting: planktonic A. baumannii, positive cutoff 3-fold increase, read-out: AK-based Prestwick library screening result, A. baumannii (fold increase in extracellular AK activity).
The mark [10] stands for this setting: planktonic E. cloacae, positive cutoff 3-fold increase, read-out: AK-based Prestwick library screening result, E. cloacae (fold increase in extracellular AK activity).
Setting [11] is: planktonic S. aureus, positive cutoff 3-fold increase, read-out: AK-based Prestwick library screening result, S. aureus (fold increase in extracellular AK activity).
The mark [12] stands for this setting: planktonic K. pneumoniae, positive cutoff 3-fold increase, read-out: AK-based Prestwick library screening result, K. pneumoniae (fold increase in extracellular AK activity).
Where [13] appears, read: planktonic P. aeruginosa, positive cutoff 3-fold increase, read-out: AK-based Prestwick library screening result, P. aeruginosa (fold increase in extracellular AK activity).
[14] abbreviates: planktonic E. coli, positive cutoff 3-fold increase, read-out: AK-based Prestwick library screening result, E. coli (fold increase in extracellular AK activity).

On to `COc1ccn(C)c(=O)c1C#N` [Ricinine], for which the fold induction at 50 µM in test [1] (planktonic, […], read-out: AK-based Prestwick Library Screening Results, E. faecium (fold increase in extracellular AK activity)) worked out at 0.9; in test [2] (planktonic, […], read-out: AK-based Prestwick Library Screening Results, A. baumannii (fold increase in extracellular AK activity)), 0.8; in test [3] (planktonic, […], read-out: AK-based Prestwick Library Screening Results, E. cloacae (fold increase in extracellular AK activity)) it was 1.3; in test [4] (planktonic, […], read-out: AK-based Prestwick Library Screening Results, S. aureus (fold increase in extracellular AK activity)), 0.9; in test [5] (planktonic, […], read-out: AK-based Prestwick Library Screening Results, K. pneumoniae (fold increase in extracellular AK activity)), 0.8; in test [6] (planktonic, […], read-out: AK-based Prestwick Library Screening Results, P. aeruginosa (fold increase in extracellular AK activity)), 0.7. Further, the fold induction at 50 µM in test [7] (planktonic, […], read-out: AK-based Prestwick Library Screening Results, E. coli (fold increase in extracellular AK activity)) came out at 0.8.

`CO[C@H]1/C=C/O[C@@]2(C)Oc3c(C)c(O)c4c(c3C2=O)C2=NC3(CCN(CC(C)C)CC3)NC2=C(NC(=O)/C(C)=C\C=C\[C@H](C)[C@H](O)[C@@H](C)[C@@H](O)[C@@H](C)[C@H](OC(C)=O)[C@@H]1C)C4=O` [Rifabutin]: the fold induction at 50 µM in test [1] (setting [8]) amounted to 1.2; in test [2] (setting [9]), 3.3; in test [3] (setting [10]), 1.6; in test [4] (setting [11]) it was 0.7; in test [5] (setting [12]) it was 1.3; in test [6] (setting [13]), 0.6. Moreover, the fold induction at 50 µM in test [7] (setting [14]) amounted to 1.3.

For the compound `CO[C@H]1/C=C/O[C@@]2(C)Oc3c(C)c(O)c4c(O)c(c(/C=N/N5CCN(C)CC5)c(O)c4c3C2=O)NC(=O)/C(C)=C\C=C\[C@H](C)[C@H](O)[C@@H](C)[C@@H](O)[C@@H](C)[C@H](OC(C)=O)[C@@H]1C` [Rifampicin], the fold induction at 50 µM in test [1] (planktonic, cutoff for positive 3-fold increase, read-out: AK-based Prestwick Library Screening Results, E. faecium (fold increase in extracellular AK activity)) worked out at 0.8; in test [2] (planktonic, cutoff for positive 3-fold increase, read-out: AK-based Prestwick Library Screening Results, A. baumannii (fold increase in extracellular AK activity)), 3; in test [3] (planktonic, cutoff for positive 3-fold increase, read-out: AK-based Prestwick Library Screening Results, E. cloacae (fold increase in extracellular AK activity)), 1.4; in test [4] (planktonic, cutoff for positive 3-fold increase, read-out: AK-based Prestwick Library Screening Results, S. aureus (fold increase in extracellular AK activity)) it was 0.8; in test [5] (planktonic, cutoff for positive 3-fold increase, read-out: AK-based Prestwick Library Screening Results, K. pneumoniae (fold increase in extracellular AK activity)), 0.7; in test [6] (planktonic, cutoff for positive 3-fold increase, read-out: AK-based Prestwick Library Screening Results, P. aeruginosa (fold increase in extracellular AK activity)), 0.6. The fold induction at 50 µM in test [7] (planktonic, cutoff for positive 3-fold increase, read-out: AK-based Prestwick Library Screening Results, E. coli (fold increase in extracellular AK activity)) stood at 1.3.

`Nc1nc2ccc(OC(F)(F)F)cc2s1` [Riluzole hydrochloride]: the fold induction at 50 µM was 0.3 in test [1] (384-well format, cutoff for positive-scoring molecules 3-fold increase, read-out: AK-based Prestwick Library Screening Results, E. faecium (increase in extracellular AK activity)); 0.2 in test [2] (384-well format, cutoff for positive-scoring molecules 3-fold increase, read-out: AK-based Prestwick Library Screening Results, A. baumannii (increase in extracellular AK activity)); 0.5 in test [3] (384-well format, cutoff for positive-scoring molecules 3-fold increase, read-out: AK-based Prestwick Library Screening Results, E. cloacae (increase in extracellular AK activity)); 0.2 in test [4] (384-well format, cutoff for positive-scoring molecules 3-fold increase, read-out: AK-based Prestwick Library Screening Results, S. aureus (increase in extracellular AK activity)); 0.2 in test [5] (384-well format, cutoff for positive-scoring molecules 3-fold increase, read-out: AK-based Prestwick Library Screening Results, K. pneumoniae (increase in extracellular AK activity)); 0.2 in test [6] (384-well format, cutoff for positive-scoring molecules 3-fold increase, read-out: AK-based Prestwick Library Screening Results, P. aeruginosa (increase in extracellular AK activity)). In addition, the fold induction at 50 µM in test [7] (384-well format, cutoff for positive-scoring molecules 3-fold increase, read-out: AK-based Prestwick Library Screening Results, E. coli (increase in extracellular AK activity)) came out at 0.2.

For `CCC(=O)[C@@]1(C)[C@H](C)C[C@H]2[C@@H]3CCC4=CC(=O)C=C[C@]4(C)[C@H]3[C@@H](O)C[C@@]21C` [Rimexolone], the fold induction at 50 µM in test [1] (setting [8]) was determined as 0.9; in test [2] (setting [9]), 0.9; in test [3] (setting [10]), 4.9; in test [4] (setting [11]) it was 1.1; in test [5] (setting [12]), 0.8; in test [6] (setting [13]), 1. Moreover, the fold induction at 50 µM in test [7] (setting [14]) turned out to be 0.9.

In the case of `Cc1nc2n(c(=O)c1CCN1CCC(c3noc4cc(F)ccc34)CC1)CCCC2` [Risperidone], the fold induction at 50 µM in test [1] (planktonic E. faecium, […], read-out: AK-based Prestwick library screening result, E. faecium (fold increase in extracellular AK activity)) stood at 1; in test [2] (planktonic A. baumannii, […], read-out: AK-based Prestwick library screening result, A. baumannii (fold increase in extracellular AK activity)), 1.5; in test [3] (planktonic E. cloacae, […], read-out: AK-based Prestwick library screening result, E. cloacae (fold increase in extracellular AK activity)) it was 1.3; in test [4] (planktonic S. aureus, […], read-out: AK-based Prestwick library screening result, S. aureus (fold increase in extracellular AK activity)), 1.3; in test [5] (planktonic K. pneumoniae, […], read-out: AK-based Prestwick library screening result, K. pneumoniae (fold increase in extracellular AK activity)) it was 1.1; in test [6] (planktonic P. aeruginosa, […], read-out: AK-based Prestwick library screening result, P. aeruginosa (fold increase in extracellular AK activity)), 1.1. Further, the fold induction at 50 µM in test [7] (planktonic E. coli, […], read-out: AK-based Prestwick library screening result, E. coli (fold increase in extracellular AK activity)) was 1.1.

On to `CC(NCCc1ccc(O)cc1)C(O)c1ccc(O)cc1` (stereo not shown) [Ritodrine hydrochloride], for which the fold induction at 50 µM in test [1] (planktonic E. faecium, cutoff for positive-scoring molecules 3-fold increase, read-out: AK-based Prestwick Library Screening Results, E. faecium (increase in extracellular AK activity)) is 0.9; in test [2] (planktonic A. baumannii, cutoff for positive-scoring molecules 3-fold increase, read-out: AK-based Prestwick Library Screening Results, A. baumannii (increase in extracellular AK activity)), 0.8; in test [3] (planktonic E. cloacae, cutoff for positive-scoring molecules 3-fold increase, read-out: AK-based Prestwick Library Screening Results, E. cloacae (increase in extracellular AK activity)), 0.9; in test [4] (planktonic S. aureus, cutoff for positive-scoring molecules 3-fold increase, read-out: AK-based Prestwick Library Screening Results, S. aureus (increase in extracellular AK activity)) it was 0.5; in test [5] (planktonic K. pneumoniae, cutoff for positive-scoring molecules 3-fold increase, read-out: AK-based Prestwick Library Screening Results, K. pneumoniae (increase in extracellular AK activity)), 0.7; in test [6] (planktonic P. aeruginosa, cutoff for positive-scoring molecules 3-fold increase, read-out: AK-based Prestwick Library Screening Results, P. aeruginosa (increase in extracellular AK activity)) it was 0.9. The fold induction at 50 µM in test [7] (planktonic E. coli, cutoff for positive-scoring molecules 3-fold increase, read-out: AK-based Prestwick Library Screening Results, E. coli (increase in extracellular AK activity)) amounted to 0.8.
